Experimental data published in US11203597B2, “Crystalline spirocyclic compound, a dosage form containing, a method for using in treatment of disease, and a method for recrystallizing” (Altavant Sciences GmbH, priority 2018, dated 2021).
Converted amounts (≈) assume the structure as drawn.

Tests used:
Assay type in all cases: physicochemical
[1] = Stability of polymorph form by pH measurement when stirred in water
Procedure: Additional tests were performed to understand the differences between form 1 and 3. One of those tests was to check stability of polymorph form by pH measurement at several times when the different forms were stirred in water (Table 11). During the tests, any changes in polymorph form were checked.

[2] = Solubility determination by HPLC
Description: Because of the small differences in solubilities, HPLC was used to measure the solubilities. The values were conformed to the shake-flask results. […] In alcohol, there was a difference in dissolution rate. This difference was not observed for aqueous solutions.

[3] = Competitive slurry experiments in n-heptane (XRPD); settings: slurry in 10 volumes of n-heptane
Procedure: Competitive slurry experiments were performed to ascertain if Compound 1 samples of Form 1 and mixtures of Form 1 and Form 3 can be converted to Form 3. Pure Form 1 and Form 3 were also tested. First, 700 mg of Compound 1 were added in different ratios to 10 volumes of n-heptane and stirred for […] (Table 2). After 16 hours and four days, the samples were checked for polymorphic form by XRPD. […]

[4] = Solubility of Compound 1 in organic solvents other than MTBE/n-heptane; settings: thermodynamic from solid
Procedure: Solubility and Form Measurement
The solubility of Compound 1 was evaluated in organic solvents other than MTBE/n-heptane mixtures. The form of the residual solids was examined by XRPD.

[5] = Competitive slurry of Form 1 and Form 3 in MTBE/n-heptane mixtures (XRPD)
Description: Compound 1 was also subjected to competitive slurry experiments between Compound 1, Form 1 and Compound 1, Form 3 in MTBE/n-heptane mixtures as summarized in Table 7 below.

CCOC(=O)[C@@H]1CC2(CCN(c3cc(O[C@H](c4ccc(Cl)cc4-c4ccccc4)C(F)(F)F)nc(N)n3)CC2)CN1 [ES928-59-2]
pH (2 hours) ([1]; 2 hours): 8.26 | pH (4 hours) ([1]; 4 hours): 7.75 | pH (7 hours) ([1]; 7 hours): 7.76

CCOC(=O)[C@@H]1CC2(CCN(c3cc(O[C@H](c4ccc(Cl)cc4-c4ccccc4)C(F)(F)F)nc(N)n3)CC2)CN1 [EdA-928-63-2]
Conc. Actual ([2]; Ethanol Abs.): 58000 µg/mL

CCOC(=O)[C@@H]1CC2(CCN(c3cc(O[C@H](c4ccc(Cl)cc4-c4ccccc4)C(F)(F)F)nc(N)n3)CC2)CN1 [ES928-60-3]
XRPD 16 hours [3]: Form 3 | XRPD 4 days [3]: Form 3

CCOC(=O)[C@@H]1CC2(CCN(c3cc(O[C@H](c4ccc(Cl)cc4-c4ccccc4)C(F)(F)F)nc(N)n3)CC2)CN1 [ES928-60-1]
XRPD 16 hours [3]: Form 1 | XRPD 4 days [3]: Form 3

CCOC(=O)[C@@H]1CC2(CCN(c3cc(O[C@H](c4ccc(Cl)cc4-c4ccccc4)C(F)(F)F)nc(N)n3)CC2)CN1 [ES928-60-2]
XRPD 16 hours [3]: Mixture 1 | XRPD 4 days [3]: Form 3

CCOC(=O)[C@@H]1CC2(CCN(c3cc(O[C@H](c4ccc(Cl)cc4-c4ccccc4)C(F)(F)F)nc(N)n3)CC2)CN1 [ES-928-62-1]
solubility thermodynamic ([2]; buffer pH 1.2, pH 1.2, simulated gastric fluid, thermodynamic from solid, Buffer pH 1.2, read-out: Conc. Actual): 49 mg/mL (≈ 83 mM)

CCOC(=O)[C@@H]1CC2(CCN(c3cc(O[C@H](c4ccc(Cl)cc4-c4ccccc4)C(F)(F)F)nc(N)n3)CC2)CN1 [ES928-60-S]
XRPD 16 hours [3]: Form 3 | XRPD 4 days [3]: Form 3

CCOC(=O)[C@@H]1CC2(CCN(c3cc(O[C@H](c4ccc(Cl)cc4-c4ccccc4)C(F)(F)F)nc(N)n3)CC2)CN1 [Compound 1, (S)-ethyl 8-(2-amino-6-((R)-1-(5-chloro-[1,1′-biphenyl]-2-yl)-2,2,2-trifluoroethoxy)pyrimidin-4-yl)-2,8-diazaspiro[4.5]decane-3-carboxylate]
solubility ([4]; EA/n-heptane 1:1, 10 °C, organic solvent or mixture): 422 mg/mL (≈ 715 mM) | solubility ([4]; EA/n-heptane 1:3, 10 °C, organic solvent or mixture): 115 mg/mL (≈ 195 mM) | solubility ([4]; EtOH/n-heptane 1:1, 10 °C, organic solvent or mixture): 396 mg/mL (≈ 671 mM) | solubility ([4]; EtOH/n-heptane 1:3, 10 °C, organic solvent or mixture): 192 mg/mL (≈ 326 mM) | solubility ([4]; IPA, 10 °C, organic solvent or mixture): 79.6 mg/mL (≈ 135 mM) | solubility ([4]; IPA, 50 °C, organic solvent or mixture): > 518 mg/mL | solubility ([4]; MTBE, 10 °C, organic solvent or mixture): > 211 mg/mL | solubility ([4]; MTBE, 50 °C, organic solvent or mixture): > 615 mg/mL | solubility ([4]; acetone/n-heptane 1:1, 10 °C, organic solvent or mixture): > 589 mg/mL | solubility ([4]; acetone/n-heptane 1:3, 10 °C, organic solvent or mixture): 208 mg/mL (≈ 353 mM) | solubility ([4]; n-butanol, 10 °C, organic solvent or mixture): 268 mg/mL (≈ 455 mM) | solubility ([4]; n-butanol, 50 °C, organic solvent or mixture): > 758 mg/mL | solubility ([4]; n-heptane, 50 °C, organic solvent or mixture): 9.5 mg/mL (≈ 16.1 mM) | solubility ([4]; water, 50 °C): 1.2 mg/mL (≈ 2.03 mM) | XRPD (1~2 hours) ([5]; MTBE/n-heptane 1/1(v/v), 45 °C): Form 3 | XRPD (19 hours) ([5]; MTBE/n-heptane 1/1(v/v), 45 °C): Form 3 | XRPD (1~2 hours) ([5]; MTBE/n-heptane 1/4(v/v), 10 °C): Form 1 + | XRPD (65 hours) ([5]; MTBE/n-heptane 1/4(v/v), 10 °C): Form 3 | XRPD (1~2 hours) ([5]; MTBE/n-heptane 1/4(v/v), 45 °C): Form 1+ | XRPD (19 hours) ([5]; MTBE/n-heptane 1/4(v/v), 45 °C): Form 3 | XRPD (1~2 hours) ([5]; MTBE/n-heptane 1/5(v/v), 10 °C): Form 1 + | XRPD (65 hours) ([5]; MTBE/n-heptane 1/5(v/v), 10 °C): Form 3 | XRPD (1~2 hours) ([5]; MTBE/n-heptane 1/5(v/v), 45 °C): Form + | XRPD (65 hours) ([5]; MTBE/n-heptane 1/5(v/v), 45 °C): Form 3
